For data set [1], the target named is T1, 5-HT7 receptor (Homo sapiens, UniProt P34969). Particulars: 5-HT7 vs other 5-HT receptors; cited from earlier work.
The test system of data set [2] is ovariectomized female rats. The data set is described as follows: Uterine weight (uterotrophic effect) in ovariectomized rats. It counts as in vivo, rat. The settings on record: vs ovariectomized controls; for uterine weight (FIG. 6D): first study, after 80 days of supplementation; for uterine weight / uterine growth (FIG. 11A): follow-up study. The source says: (§1) The animals arrived at approximately 60 days of age, and were placed on specific diets throughout the study (to approximately 160 days of age). The diets were formulated and provided by Dyets Inc. (Bethlehem, Pa.) and are based on a modified AIN-93G diet. These diets were fed ad libitum. Two weeks after arrival, at approximately 80 days of age, the animals were ovariectomized, allowed to recover for three weeks, and then placed on defined diets. In the first study, these diets contained 0, 0.08, 0.48, 3.2, 18.5, 185, or 3700 μg/kg/day of NMS dihydrochloride (FIG. 2). In the second, follow-up study, the diets contained no NMS (control), NMS oxalate (18.5 or 55.5 μg/kg/d), or milled Zanthoxylum seed in quantities that supplied NMS-glucoside at equivalent doses (18.5 or 55.5 μg/kg/d; FIG. 8). The NMS and NMS-glucoside content was verified using liquid chromatography with mass spectrometric detection. Extraction methods were similar to those of Yanase et al., 2010.
(§2) All diets were fed for 2 weeks prior to the first behavioral assessment (open field). Positive control animals received a 5.0 mm subcutaneous silastic capsule implant packed with a crystalline 17β-estradiol and cholesterol mixture (25%, 0.058 inch inner diameter, 0.077 inch outer diameter; Dow Corning #508-006). Animals were then examined for locomotor activity (open field) and in two behavioral assays to assess mood (elevated plus maze and swim test) separated by two weeks in-between each assay. Two weeks after the final behavioral task (swim test), the animals were anesthetized and their physiological response to an experimentally-induced hot flash was tested. After the temperature monitoring was complete, tissue was harvested while the animals were still anesthetized.

In data set [3] the test system is ovariectomized female rats. Put plainly: Behavioral measures of mood overall (open field, elevated plus maze, swim test). It counts as in vivo, rat. On the procedure:
Animal Handling. Rats were handled each day for four days prior to behavioral analysis. This involved gently removing the animal from its cage and holding it in the experimenter's lap on a towel without restraint, allowing the animal to explore. This acclimatized the animal to handling by experimenters. All behavioral testing occurred in a room adjacent to the colony room, and the animals were acclimated to the test room overnight prior to testing.
(§3) Open Field Task. Animals were tested in the open field to measure overall locomotor activity and basal anxiety state. In the open field test each rat is placed in a novel environment consisting of an arena measuring 100×100×40 cm. Rats were placed in the middle of the chamber and behavior in the open field was recorded for thirty minutes with a digital camera and measured by software (AnyMaze, Stoelting Co., Inc.). The following parameters were analyzed: a) total distance traveled; b) time in center; c) center entries; and d) number of fecal boli excreted.
Elevated Plus Maze Task. […] Each rat was placed in the central platform facing one of the open arms, and its behavior was recorded during a 5-min testing period with video capture software (AnyMaze). The amount of time spent on open and closed arms and the number of entries into open and closed arms were assessed with video analysis (AnyMaze). […]

In data set [4] the test system is ovariectomized female rats. Put plainly: Elevated plus maze task (anxiety-like behaviors). The class given is in vivo, rat. On the procedure: Elevated Plus Maze Task. Animals were tested on the elevated plus maze to measure anxiety-related behavior. The plus-maze is elevated ˜85 cm above the floor and consisted of two open and two closed arms of the same size (50×10 cm). The closed arms were surrounded by walls 40 cm high, and the arms were constructed of black acrylic slabs that radiate from a central platform (10×10 cm) to form a plus sign (Lafayette Instruments, Lafayette, Ind.). Each rat was placed in the central platform facing one of the open arms, and its behavior was recorded during a 5-min testing period with video capture software (AnyMaze). The amount of time spent on open and closed arms and the number of entries into open and closed arms were assessed with video analysis (AnyMaze). In addition, the animals were scored live by the experimenter for time spent rearing, grooming, and number of stretch-attend postures and head dips over the edge of the open arm.

For data set [5], the system named is ovariectomized female rats. The data set is described as follows: CGRP-induced hot flash / skin temperature in ovariectomized rats. It counts as in vivo, rat. Particulars: for CGRP response of skin temperature above baseline (representative data, FIG. 3) / basal skin temperature (representative data, FIG. 3): NMS 0.48 or 18.5 ug/kg/d through diet, estradiol subcutaneous; for CGRP response of skin temperature above baseline (representative data, FIG. 3) / basal skin temperature (representative data, FIG. 3) / CGRP-induced hot flash response (repeated measures ANOVA, FIG. 9A): vs untreated controls; for CGRP-induced hot flash response (repeated measures ANOVA, FIG. 9A): seed supplying NMS-glucoside or NMS oxalate 18.5 or 55.5 μg/kg/d in diet, estradiol implant.
From the text: as §1, §2
Ovariectomy. Two weeks after arrival, each animal was anesthetized via isoflurane inhalation and the dorsal mid-lumbar area was shaved and swabbed with surgical scrub, iodine and alcohol. The animal was then placed on a warm heat pad covered by a sterile cloth/pad in ventral recumbency with tail towards surgeon. A 2-3 cm dorsal midline skin incision was made halfway between the caudal edge of the ribcage and the base of the tail. A single transverse incision of 5.5-10 mm long was made into the muscle wall on both the right and left sides approximately ⅓ of the distance between the spinal cord and the ventral midline. The ovary and the oviduct were exteriorized through the muscle wall. A hemostat was clamped around the uterine vasculature between the oviduct and uterus and the uterine vasculature was ligated with dissolvable suture. Each ovary and part of the oviduct was removed with single cuts through the oviducts near the ovary. The hemostat was removed, and the remaining tissue replaced into the peritoneal cavity. The ovary on the other side was removed in a similar manner. The muscle incision is not sutured. Sterile wound clips were used to close the skin incision. Animals were monitored daily for signs of infection or morbidity.
Hot Flash Studies. Animals were anesthetized with intraperitoneal co-injection of urethane (750 mg/kg) and α-chloralose (60 mg/kg). […] Thermistor probes (ADI Instruments, Colorado Springs, Colo.) were taped to the plantar surfaces of one hind foot. Forty minutes later, after anesthesia-induced hypothermia had stabilized, the basal skin temperature was recorded. Temperature monitoring then occurred at 5-second intervals throughout the remainder of the experiment. Calcitonin gene related peptide (CGRP; 10 μg/kg, i.v.) dissolved in saline was then injected via the tail vein. A maximum of eight animals were tested at the same time due to limitations on instrumental throughput. Cage mates were always tested together in order to avoid the stresses of single-housing and the potential stress hormone effects on body temperature. Therefore only four groups could be tested within any one given day.

In data set [6] the test system is ovariectomized female rats. The data set is described as follows: Open field task (locomotion, anxiety-like behaviors). The class given is in vivo, rat. On the procedure:
as §3

Data set [7] in a line: Circulating (plasma) estradiol in ovariectomized rats. The class given is in vivo, rat. Particulars: dietary NMS; for plasma estradiol level (FIG. 5): first study, estradiol implant as positive control.
From the text: as §1, §2

For data set [8], the target named is serotonin reuptake transporter (SERT) (Homo sapiens, UniProt P31645). Particulars: FIG. 1C, Powell et al., 2008, cited from earlier work.
Sequence of serotonin reuptake transporter (SERT) (P31645 whole entry, species assumed): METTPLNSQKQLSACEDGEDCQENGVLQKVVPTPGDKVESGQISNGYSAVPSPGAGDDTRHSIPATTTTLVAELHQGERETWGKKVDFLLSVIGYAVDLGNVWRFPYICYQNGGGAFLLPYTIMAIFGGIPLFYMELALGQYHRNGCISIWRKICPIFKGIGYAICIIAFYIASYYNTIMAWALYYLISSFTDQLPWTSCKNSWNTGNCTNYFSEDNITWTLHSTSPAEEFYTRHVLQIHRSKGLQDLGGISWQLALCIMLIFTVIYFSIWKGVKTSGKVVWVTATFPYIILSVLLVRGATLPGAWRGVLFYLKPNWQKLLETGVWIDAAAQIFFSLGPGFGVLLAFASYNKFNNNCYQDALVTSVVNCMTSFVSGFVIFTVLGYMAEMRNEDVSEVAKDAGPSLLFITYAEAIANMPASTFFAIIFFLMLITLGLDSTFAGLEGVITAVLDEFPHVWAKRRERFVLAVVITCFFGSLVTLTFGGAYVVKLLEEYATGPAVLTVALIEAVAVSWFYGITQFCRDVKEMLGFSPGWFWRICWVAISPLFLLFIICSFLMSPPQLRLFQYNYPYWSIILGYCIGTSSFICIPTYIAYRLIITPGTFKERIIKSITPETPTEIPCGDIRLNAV
Data set [9] addresses T1, 5-HT7 receptor. Particulars: FIG. 1B, cited from earlier work.
Data set [10] in a line: Body weight of ovariectomized rats on diets. It counts as in vivo, rat. Particulars: for body weight throughout experiment (FIG. 6A): vs control diet / all other groups.
From the text: as §1, §2

In data set [11] the test system is ovariectomized female rats. Put plainly: Forced swim test (depressive-like behaviors). It counts as in vivo, rat. On the procedure:
Swim Test. Each rat was examined in the swim test for depressive-like behaviors. The test was performed over two consecutive days since it is a measure of an adaptive response to a perceived inescapable situation. The first test establishes to the animal that it is an inescapable situation, and the second test measures the animal's degree of passive coping derived from an unwillingness to maintain effort in an inescapable situation. Typical antidepressants limit the amount of passive coping (immobility) and promote the amount of active coping (swimming/climbing). On day one (0800 h to 1300 h), animals were acclimated to the test by placing them in a plexiglass cylindrical container (45 cm×20 cm) filled with 30 cm of fresh water (25° C.) for fifteen minutes, after which they were toweled dried and returned to their home cage. On day two (24 hrs later) the test was performed for a total swim time of five minutes, after which the rats were toweled dried and returned to their home cage. Both trials were recorded by a digital video camera was secured to the ceiling above the cylinders and connected to a laptop. Total time spent swimming and immobile was measured real-time by behavioral software (Anymaze, Stoelting Co.), and scored post hoc by a blinded experimenter from captured video. […] Immobility was defined as absence of any movement except for slight movements necessary for the animal to keep its head above water. Climbing was defined as rapid movement of the forelimbs that broke the surface of the water.

Broadly, the IC50 is the point on the concentration scale where inhibition reaches its midpoint. The EC50 is the midpoint of the concentration-response curve.

“And” between values parts separate entries of the source, which are not always exact repeats. Identical values can stand only once.

T1 sequence (P34969 whole entry): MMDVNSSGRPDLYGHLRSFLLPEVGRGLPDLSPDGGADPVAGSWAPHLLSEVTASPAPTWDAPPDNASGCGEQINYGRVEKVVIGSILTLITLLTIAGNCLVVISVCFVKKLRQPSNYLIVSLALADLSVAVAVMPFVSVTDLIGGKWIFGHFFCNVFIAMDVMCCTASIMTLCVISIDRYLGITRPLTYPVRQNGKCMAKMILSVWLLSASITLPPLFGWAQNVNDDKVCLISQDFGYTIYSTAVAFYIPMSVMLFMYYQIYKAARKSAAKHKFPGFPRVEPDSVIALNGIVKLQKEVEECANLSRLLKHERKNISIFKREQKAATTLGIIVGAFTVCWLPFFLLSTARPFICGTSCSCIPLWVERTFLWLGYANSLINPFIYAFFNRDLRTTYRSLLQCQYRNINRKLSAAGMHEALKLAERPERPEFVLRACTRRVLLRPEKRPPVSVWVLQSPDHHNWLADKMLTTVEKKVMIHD

Turning to `CNCCc1c[nH]c2ccc(O)cc12` [NMS, N-methylserotonin], at 5-HT7 receptor [1], the “binding preference among 5-HT receptors” value is recorded as “binds preferentially to 5-HT7 receptors over other 5-HT receptors”. For the same compound, in [2], the “uterine weight (FIG. 6D)” value is given as “did not alter uterine weight” and the “uterine weight / uterine growth (FIG. 11A)” value is listed as “did not alter uterine weight”. Further, the “behavioral measures of mood (FIG. 7)” value in [3] (first study, dietary NMS) is reported as “did not alter behavioral measures of mood”. Further, the “behavioral measures of mood / mood-related behaviors (FIG. 10)” value in data set [3] (follow-up study) is given as “did not alter behavioral measures of mood”. For the same compound, the “time spent in the open arms of elevated plus maze (FIG. 7D)” value in data set [4] (first study) is on record as “no differences amongst groups”. In addition, the “effect of treatment in the elevated plus maze (FIG. 10B)” value in data set [4] (follow-up study) is listed as “No significant effects of treatment”. In addition, the “human equivalent dose (HED) for thermoregulatory effects” value in [5] (body surface area (BSA) method, first study) was in the range of 150 to 840 µg/day. Also, the “basal skin temperature (FIG. 4)” value in data set [5] (first study, 18.5 ug/kg/d dietary NMS vs untreated controls) is “decreased basal skin temperature”. Moreover, in data set [5] (first study), the “CGRP response of skin temperature above baseline (representative data, FIG. 3)” value is given as “lower CGRP responses” and the “basal skin temperature (representative data, FIG. 3)” value is listed as “lower basal temperatures”. Moreover, the “CGRP-induced hot flash response, baseline corrected (repeated measures ANOVA, FIG. 4)” value in data set [5] (first study, dietary NMS) is listed as “blunted the CGRP-induced hot flash response”. In addition, the “CGRP-induced hot flash response (repeated measures ANOVA, FIG. 9A)” value in data set [5] (follow-up study) was “blunted the CGRP-induced hot flash response”. Also, the “total distance traveled in open field (FIG. 7C)” value in data set [6] (first study, 30 minute test) was “no differences across groups”. For the same compound, the “effect of treatment in the open field (FIG. 10A)” value in data set [6] (follow-up study) is reported as “No significant effects of treatment”. The “plasma estradiol level (FIG. 5)” value in data set [7] is “increased plasma estradiol in a dose-dependent manner”. The non-uterine estradiol secretion entry in data set [7] (ovariectomized rats) was “tripled”. For the same compound, the “fold lower affinity than Prozac at the serotonin reuptake transporter” value in data set [8] is given as 100 fold. For the same compound, in [8] (read-out: IC50 of serotonin reuptake transporter inhibition), the concentration for half-maximal inhibition (IC50) was roughly 500 nM. Besides, the “concentration of maximal activation of the 5-HT7 receptor” value at 5-HT7 receptor [9] is 50 to 100 nM. Besides, the EC50 on 5-HT7 receptor [9] (read-out: EC50 of 5-HT7 receptor activation) was ~22 nM and 22 nM. Besides, the “weight change as a percentage of original weight (FIG. 6B, C)” value in [10] (first study, throughout or at the end of the study) is recorded as “not different between dietary treatments”. The “body weight throughout experiment (FIG. 6A)” value in data set [10] (first study) was “did not alter body weight”. The “overall weight change as a percentage of original weight at the end of the study (FIG. 11C)” value in data set [10] (follow-up study) is reported as “not different between dietary treatments”. Besides, the “weight change as a percentage of original weight over time (FIG. 11B)” value in data set [10] (follow-up study, vs controls) was “different between controls and pepper supplemented or NMS supplemented groups”. In addition, the “time spent climbing, second session of forced swim test (FIG. 7B)” value in data set [11] (first study) is reported as “no significant differences amongst groups”. Moreover, the “effect of treatment in the forced swim test (FIG. 10C)” value in data set [11] (follow-up study) was “No significant effects of treatment”.
`CNCCc1c[nH]c2ccc(O[C@@H]3O[C@H](CO)[C@@H](O)[C@H](O)[C@H]3O)cc12` [NMS-glucoside, N-methylserotonin 5-O-6-glucoside]: in data set [5] (BSA calculation, follow-up study, NMS-glucoside in milled seed), the “human equivalent dose (HED)” value was 150 to 540 µg/day.
As to `C[C@]12CC[C@@H]3c4ccc(O)cc4CC[C@H]3[C@@H]1CC[C@@H]2O` [estradiol, 17β-estradiol, reference compound], in data set [2], the “uterine weight (FIG. 6D)” value is on record as “significantly higher uterine weights” and the “uterine weight / uterine growth (FIG. 11A)” value is “significantly higher uterine weights”. Besides, in data set [5] (first study), the “CGRP response of skin temperature above baseline (representative data, FIG. 3)” value is given as “lowest responses to CGRP” and the “basal skin temperature (representative data, FIG. 3)” value is “lowest basal temperatures”. Also, the “CGRP-induced hot flash response (repeated measures ANOVA, FIG. 9A)” value in data set [5] (follow-up study) was “blunted the CGRP-induced hot flash response”. For the same compound, the “plasma estradiol level (FIG. 5)” value in [7] is “highest levels of plasma estradiol”. Besides, the “body weight throughout experiment (FIG. 6A)” value in data set [10] (first study) is reported as “significantly lower body weight”. Moreover, the “body weight throughout the experiment (FIG. 11B)” value in [10] (follow-up study, vs all other groups) is “significantly lower body weight”. In data set [11] (first study), the “time immobile, second session of forced swim test (FIG. 7A)” value was “spent less time immobile”.

Values taken from patent US20140213536A1, “MARKETING N-METHY[…] RELATED SUBSTANCES FOR USE IN TREATING/ LESSENING THE OCCURRENCE OF HOT FLASHES RELATED TO MENOPAUSE” (DSM IP ASSETS B.V., priority 2013, published 2014).
